Experiments:
[1] = biological target: T1, CDK2/Cyclin E (Homo sapiens, UniProt P24941); experiment: CDK2/Cyclin E in vitro kinase assay (Scintillation Proximity Assay, GST-Rb substrate); format: biochemical; settings: read-out: CDK2 inhibitory activity IC50
T1 construct: made in house; host or cells: Sf21 insect cells (baculovirus co-infection, pVL1393); the GST-Rb substrate was made in E. coli BL21 (DE3) pLysS
Method: The compounds were tested in an in vitro kinase assay in 96 well format using Scintillation Proximity Assay (SPA—obtained from Amersham) for measuring incorporation of [γ-33-P]-Adenosine Triphosphate into a test substrate (GST-Retinoblastoma protein; GST-Rb). In each well was placed the compound to be tested (diluted in DMSO and water to correct concentrations) and in control wells either roscovitine as an inhibitor control or DMSO as a positive control. […]
The plates were sealed with Topseal-S plate sealers, left for two hours then spun at 2500 rpm, 1124 xg., for 5 minutes. The plates were read on a Topcount for 30 seconds per well. […]
E. coli paste was resuspended in 10 ml/g of NETN buffer (50 mM Tris pH 7.5, 120 mM NaCl, 1 mM EDTA, 0.5% v/v NP-40, 1 mM PMSF, 1 μg/ml leupeptin, 1 ug/ml aprotinin and 1 ug/ml pepstatin) and sonicated for 2×45 seconds per 100 ml homogenate. […] The final product was analysed by Sodium Dodeca Sulfate (SDS) PAGE (Polyacrylamide gel) using 8-16% Tris-Glycine gels (Novex, San Diego, USA).
The open reading frames of CDK2 and Cyclin E were isolated by reverse transcriptase-PCR using HeLa cell and activated T cell mRNA as a template and cloned into the insect expression vector pVL1393 (obtained from Invitrogen 1995 catalogue number: V1392-20). […]

[2] = High Throughput Blood Level Assay - Rat; format: in vivo; settings: male, Alderley Park (AP), Wistar derived, Alpk..APfSD, plasma, oral cocktail dosing, normalised to a 1 mg/kg dose
Source text: (§1) The level of oral exposure of a compound can be measured by the following assay. This assay gives a semi-quantitative measure of the concentration of the compound achieved in the blood at a number of time points. Data available include Cmax (highest concentration achieved), and the AUC (area under the plasma concentration/time curve) for the compound. This gives a high throughput measure of likelihood of obtaining blood levels for each compound following oral dosing and as the data are normalised for dose, it allows direct comparison of each compound.
A cocktail of 6 compounds is formulated in propylene glycol using a combination of vortex mixing, sonication and high speed shear mixing. This formulation consists of 5 test compounds (1 mg/ml) and a standard (0.5 mg/ml). The resulting formulation is a solution or a stable (≧several hours) suspension.
The formulation is dosed (2 ml/kg) to two male rats (170-250 gm) which have been fasted for ≦16 hours then pre-dosed with water (˜10 ml/kg). The dose for the test compounds is 2 mg/kg and for the standard it is 1 mg/kg. […]
Samples are analysed by LC/MS-MS and the concentration obtained is used to determine the Cmax μg/ml (maximum compound level detected), AUC0-6 hr μg/hr/ml (area under the curve) and tmax hr (time that the maximum compound levels have been measured) for a given compound to give an indication of exposure […]

[3] = High Throughput Blood Level Assay - Mice; format: in vivo; settings: male, Alpk..APfCD-1, plasma, 2 mg/kg; AP mouse, oral cocktail dosing, normalised to 1 mg/kg
Source text: as §1
The above assay may be run using mice in place of rats, but with the following variations.
For a profile in mice 10 male mice are dosed at the same level as to rats but they are not fasted or predosed with water. Furthermore, samples from mice are all terminal, with 2 mice per time point.
The mice used in the above experiment were AP mice. The AP mouse was originally obtained from a commercial breeder Schoefields in 1956. The stock was rederived by fostering onto a CD-1 Charles Rivers (commercial supplier) outbred mouse and has remained a closed colony ever since. The nomenclature for these animals is Alpk..APfCD-1.

Compound	IC50 [1]	AUC [2]	Cmax [2]	AUC [3]	Cmax [3]
CNC(=O)c1ccc(Nc2ncc(F)c(-c3cnc(C)n3C(C)C)n2)cc1C [Example 28]	3 nM	–	–	–	–
Cc1ncc(-c2nc(Nc3ccc(C(=O)NC4CC4)c(F)c3)ncc2F)n1C(C)C [Example 25]	–	0.83 µM·h	400 nM	1.5 µM·h	680 nM

Reference: patent US20090099160A1, “4-(4-(Imidazol-4-Yl) Pyrimidin-2-Ylamino) Benzamides as CDK Inhibitors” (priority 2004, published 2009)
